Assay results reported in patent US9221827B2, “Antimicrobial compounds and methods of making and using the same” (Melinta Therapeutics, Inc., priority 2011, dated 2015).
Values belong to the compound of their own block, whether it stands above or below them.

System: Escherichia coli strain ATCC25922
Assay: standard microdilution assay to determine minimum inhibitory concentrations (MICs)
Assay type: cell-based
Details: Escherichia coli strain ATCC25922, standard microdilution assay
How it was run: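 Broth microdilution per CLSI (M7-A8/M100-S20), 100 μl final volume, with reference-strain quality control; MIC is the lowest inhibitory concentration. Scored "+"/"−" against a 16 micrograms/ml cutoff, "N/A" where unavailable.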

Structure (SMILES): CC(N)COCc1cc(Cl)c(F)c(-c2cc3cn(-c4ccc(C(C)NCCCNC(=N)N)cc4)c(=O)nc3[nH]2)c1 (centres unmarked) [Compound 376]
E. coli ATCC25922 MIC: + (a “+” indicates that the compound has an MIC value of 16 micrograms/ml or less)

Structure (SMILES): C[C@H](NCCCNC(=N)N)c1ccc(-n2cc3cc(-c4cc(CSC(C)(C)CN)cc(SC(F)(F)F)c4)[nH]c3nc2=O)cc1 [Compound 377]
E. coli ATCC25922 MIC: + (a “+” indicates that the compound has an MIC value of 16 micrograms/ml or less)

Structure (SMILES): CN(CCCNC(=N)N)Cc1ccc(-n2cc3cc(-c4cc(CCCCN)cc(Cl)c4F)[nH]c3nc2=O)cc1 [Compound 378]
E. coli ATCC25922 MIC: + (a “+” indicates that the compound has an MIC value of 16 micrograms/ml or less)

Structure (SMILES): CC(N)CCCc1cc(Cl)c(F)c(-c2cc3cn(-c4ccc(CN(C)CCCNC(=N)N)cc4)c(=O)nc3[nH]2)c1 (centres unmarked) [Compound 379]
E. coli ATCC25922 MIC: + (a “+” indicates that the compound has an MIC value of 16 micrograms/ml or less)

Structure (SMILES): CCC(N)CCCc1cc(SC(F)(F)F)cc(-c2cc3cn(-c4ccc(CNCCCNC(=N)N)cc4)c(=O)nc3[nH]2)c1 (centres unmarked) [Compound 380]
E. coli ATCC25922 MIC: + (a “+” indicates that the compound has an MIC value of 16 micrograms/ml or less)

Structure (SMILES): CCC(N)CCCc1cc(SC(F)(F)F)cc(-c2cc3cn(-c4ccc(C(C)NCCCNC(=N)N)cc4)c(=O)nc3[nH]2)c1 (centres unmarked) [Compound 381]
E. coli ATCC25922 MIC: + (a “+” indicates that the compound has an MIC value of 16 micrograms/ml or less)

Structure (SMILES): CN=C(N)NCCCNCc1ccc(-n2cc3cc(-c4cc(CCCC(C)N)cc(Cl)c4F)[nH]c3nc2=O)cc1 (centres unmarked) [Compound 382]
E. coli ATCC25922 MIC: + (a “+” indicates that the compound has an MIC value of 16 micrograms/ml or less)

Structure (SMILES): CC(N)CCCc1cc(Cl)c(F)c(-c2cc3cn(-c4ccc(C(C)NCCCNC(N)=NC5CNC5)cc4)c(=O)nc3[nH]2)c1 (centres unmarked) [Compound 383]
E. coli ATCC25922 MIC: + (a “+” indicates that the compound has an MIC value of 16 micrograms/ml or less)

Structure (SMILES): CC(NCCCNC(=N)N)c1ccc(-n2cc3cc(-c4cc(CCC5CC(N)C5)cc(Cl)c4F)[nH]c3nc2=O)cc1 (centres unmarked) [Compound 384]
E. coli ATCC25922 MIC: + (a “+” indicates that the compound has an MIC value of 16 micrograms/ml or less)

Structure (SMILES): CC(C)Cc1cc(CCCC(C)N)cc(-c2cc3cn(-c4ccc(C(C)NCCCNC(=N)N)cc4)c(=O)nc3[nH]2)c1 (centres unmarked) [Compound 385]
E. coli ATCC25922 MIC: + (a “+” indicates that the compound has an MIC value of 16 micrograms/ml or less)

Structure (SMILES): CC(=O)NCCCNCc1ccc(-n2cc3cc(-c4cc(CCC[C@H](C)N)cc(Cl)c4F)[nH]c3nc2=O)cc1 [Compound 386]
E. coli ATCC25922 MIC: − (a “−” indicates that the compound has an MIC value greater than 16 micrograms/ml)

Structure (SMILES): CCc1cc(CCC[C@H](C)N)nc(-c2cc3cn(-c4ccc(CNCCCNC(=N)N)cc4)c(=O)nc3[nH]2)c1 [Compound 387]
E. coli ATCC25922 MIC: + (a “+” indicates that the compound has an MIC value of 16 micrograms/ml or less)

Structure (SMILES): CCc1cc(CCC[C@H](C)N)nc(-c2cc3cn(-c4ccc([C@H](C)NCCCNC(=N)N)cc4)c(=O)nc3[nH]2)c1 [Compound 388]
E. coli ATCC25922 MIC: + (a “+” indicates that the compound has an MIC value of 16 micrograms/ml or less)

Structure (SMILES): C[C@H](N)CCCc1cc(C(F)(F)F)cc(-c2cc3cn(-c4ccc(CNCCCNC(=N)N)cc4)c(=O)nc3[nH]2)n1 [Compound 389]
E. coli ATCC25922 MIC: + (a “+” indicates that the compound has an MIC value of 16 micrograms/ml or less)

MIC (read-out: E. coli ATCC25922 MIC): ≤ 16 µg/mL
Structure (SMILES): C[C@H](N)CCCc1cc(C(F)(F)F)cc(-c2cc3cn(-c4ccc([C@H](C)NCCCNC(=N)N)cc4)c(=O)nc3[nH]2)n1 [Compound 390]

Structure (SMILES): CC(NCCCNC(=N)N)c1ccc(-n2cc3cc(-c4cc(CCCC(N)CO)cc(Cl)c4F)[nH]c3nc2=O)cc1 (centres unmarked) [Compound 391]
E. coli ATCC25922 MIC: + (a “+” indicates that the compound has an MIC value of 16 micrograms/ml or less)

Structure (SMILES): CC[C@H](NCCCNC(=N)N)c1ccc(-n2cc3cc(-c4cc(CCC[C@H](C)N)cc(Cl)c4F)[nH]c3nc2=O)cc1 [Compound 392]
E. coli ATCC25922 MIC: + (a “+” indicates that the compound has an MIC value of 16 micrograms/ml or less)

Structure (SMILES): C[C@H](N)CCCc1cc(-c2cc3cn(-c4ccc([C@H](C)NCCCNC(=N)N)cc4)c(=O)nc3[nH]2)cc2c1CCC2 [Compound 393]
E. coli ATCC25922 MIC: + (a “+” indicates that the compound has an MIC value of 16 micrograms/ml or less)

Structure (SMILES): C[C@H](N)CCCc1cc(Cl)c(F)c(-c2cc3cn(-c4ccc(CNCCCN/C(N)=N\[N+](=O)[O-])cc4)c(=O)nc3[nH]2)c1 [Compound 394]
E. coli ATCC25922 MIC: + (a “+” indicates that the compound has an MIC value of 16 micrograms/ml or less)

Structure (SMILES): C[C@H](NCCCNC(=N)N)c1ccc(-n2cc3cc(-c4cc(C[C@H]5C[C@@H](N)C5)cc(C(F)(F)F)c4)[nH]c3nc2=O)cc1 [Compound 395]
E. coli ATCC25922 MIC: + (a “+” indicates that the compound has an MIC value of 16 micrograms/ml or less)

Structure (SMILES): C[C@H](NCCCNC(=N)N)c1ccc(-n2cc3cc(-c4cc(C[C@H]5C[C@H](N)C5)cc(C(F)(F)F)c4)[nH]c3nc2=O)cc1 [Compound 396]
E. coli ATCC25922 MIC: + (a “+” indicates that the compound has an MIC value of 16 micrograms/ml or less)

Structure (SMILES): C[C@@H](N)CCc1cc(SC(F)(F)F)cc(-c2cc3cn(-c4ccc(CNCCCNC(=N)N)cc4)c(=O)nc3[nH]2)c1 [Compound 397]
E. coli ATCC25922 MIC: + (a “+” indicates that the compound has an MIC value of 16 micrograms/ml or less)

Structure (SMILES): C[C@H](NCCCNC(=N)N)c1ccc(-n2cc3cc(-c4cc(CC[C@@H](C)N)cc(SC(F)(F)F)c4)[nH]c3nc2=O)cc1 [Compound 398]
E. coli ATCC25922 MIC: + (a “+” indicates that the compound has an MIC value of 16 micrograms/ml or less)

Structure (SMILES): CC[C@H](NCCCNC(=N)N)c1ccc(-n2cc3cc(-c4cc(CCC[C@H](C)N)cc(C(F)(F)F)c4)[nH]c3nc2=O)cc1 [Compound 400]
E. coli ATCC25922 MIC: + (a “+” indicates that the compound has an MIC value of 16 micrograms/ml or less)

Structure (SMILES): C[C@H](NCCCNC(=N)N)c1ccc(-n2cc3cc(-c4cc(C[C@H]5C[C@@H](CN)C5)cc(SC(F)(F)F)c4)[nH]c3nc2=O)cc1 [Compound 402]
E. coli ATCC25922 MIC: + (a “+” indicates that the compound has an MIC value of 16 micrograms/ml or less)

Structure (SMILES): C[C@H](NCCCNC(=N)N)c1ccc(-n2cc3cc(-c4cc(C[C@H]5C[C@H](CN)C5)cc(SC(F)(F)F)c4)[nH]c3nc2=O)cc1 [Compound 403]
E. coli ATCC25922 MIC: + (a “+” indicates that the compound has an MIC value of 16 micrograms/ml or less)

Structure (SMILES): C[C@H](N)CCCc1cc(OC(F)(F)F)cc(-c2cc3cn(-c4ccc([C@@H](C)N)cc4)c(=O)nc3[nH]2)c1 [Compound 405]
E. coli ATCC25922 MIC: − (a “−” indicates that the compound has an MIC value greater than 16 micrograms/ml)

Structure (SMILES): C[C@H](N)CCCc1cc(Cl)c(F)c(-c2cc3cn(-c4ccc([C@@H](C)N)cc4)c(=O)nc3[nH]2)c1 [Compound 406]
E. coli ATCC25922 MIC: − (a “−” indicates that the compound has an MIC value greater than 16 micrograms/ml)

Structure (SMILES): CC[C@H](NCCCNC(=N)N)c1ccc(-n2cc3cc(-c4cc(CCC[C@H](C)N)cc(SC(F)(F)F)c4)[nH]c3nc2=O)cc1 [Compound 407]
E. coli ATCC25922 MIC: + (a “+” indicates that the compound has an MIC value of 16 micrograms/ml or less)

Structure (SMILES): CC(C)c1cc(CCC[C@H](C)N)cc(-c2cc3cn(-c4ccc(CNCCCNC(=N)N)cc4)c(=O)nc3[nH]2)c1F [Compound 408]
E. coli ATCC25922 MIC: + (a “+” indicates that the compound has an MIC value of 16 micrograms/ml or less)

Structure (SMILES): C[C@H](N)CCCc1cc(SC(F)(F)F)c(Cl)c(-c2cc3cn(-c4ccc([C@@H](C)N)cc4)c(=O)nc3[nH]2)c1 [Compound 409]
E. coli ATCC25922 MIC: − (a “−” indicates that the compound has an MIC value greater than 16 micrograms/ml)

Structure (SMILES): C[C@H](NCCCNC(=N)N)c1ccc(-n2cc3cc(-c4cc(CC[C@@H](C)N)cc(C(F)(F)F)c4)[nH]c3nc2=O)cc1 [Compound 410]
E. coli ATCC25922 MIC: + (a “+” indicates that the compound has an MIC value of 16 micrograms/ml or less)

Structure (SMILES): C[C@H](NCCCNC(=N)N)c1ccc(-n2cc3cc(-c4cc(CC[C@@H](C)N)cc(Cl)c4F)[nH]c3nc2=O)cc1 [Compound 411]
E. coli ATCC25922 MIC: + (a “+” indicates that the compound has an MIC value of 16 micrograms/ml or less)

Structure (SMILES): CCC[C@H](NCCCNC(=N)N)c1ccc(-n2cc3cc(-c4cc(CCC[C@H](C)N)cc(Cl)c4F)[nH]c3nc2=O)cc1 [Compound 415]
E. coli ATCC25922 MIC: + (a “+” indicates that the compound has an MIC value of 16 micrograms/ml or less)

Structure (SMILES): CCC[C@H](NCCCNC(=N)N)c1ccc(-n2cc3cc(-c4cc(CCC[C@H](C)N)cc(SC(F)(F)F)c4)[nH]c3nc2=O)cc1 [Compound 416]
E. coli ATCC25922 MIC: + (a “+” indicates that the compound has an MIC value of 16 micrograms/ml or less)

Structure (SMILES): C[C@H](N)CCCc1cc(-c2cc3cn(-c4ccc([C@H](C)NCCCNC(=N)N)cc4)c(=O)nc3[nH]2)cc2c1CCCC2 [Compound 417]
E. coli ATCC25922 MIC: + (a “+” indicates that the compound has an MIC value of 16 micrograms/ml or less)

Structure (SMILES): CC(N)C(C)OCc1cc(OC(F)(F)F)cc(-c2cc3cn(-c4ccc(CNCCCNC(=N)N)cc4)c(=O)nc3[nH]2)c1 (centres unmarked) [Compound 418]
E. coli ATCC25922 MIC: + (a “+” indicates that the compound has an MIC value of 16 micrograms/ml or less)

Structure (SMILES): CC(NCCCNC(=N)N)c1ccc(-n2cc3cc(-c4cc(COC(C)C(C)N)cc(OC(F)(F)F)c4)[nH]c3nc2=O)cc1 (centres unmarked) [Compound 419]
E. coli ATCC25922 MIC: + (a “+” indicates that the compound has an MIC value of 16 micrograms/ml or less)

Structure (SMILES): COC[C@H](N)CCCc1cc(SC(F)(F)F)cc(-c2cc3cn(-c4ccc(CNCCCNC(=N)N)cc4)c(=O)nc3[nH]2)c1 [Compound 424]
E. coli ATCC25922 MIC: + (a “+” indicates that the compound has an MIC value of 16 micrograms/ml or less)

Structure (SMILES): CCC[C@H](NCCCNC(=N)N)c1ccc(-n2cc3cc(-c4cc(CCC[C@H](C)N)cc(C(F)(F)F)c4)[nH]c3nc2=O)cc1 [Compound 427]
E. coli ATCC25922 MIC: + (a “+” indicates that the compound has an MIC value of 16 micrograms/ml or less)

Structure (SMILES): C[C@H](N)CCCc1cc(-c2cc3cn(-c4ccc([C@H](C)NCCCNC(=N)N)cc4)c(=O)nc3[nH]2)cc(Cl)n1 [Compound 428]
E. coli ATCC25922 MIC: + (a “+” indicates that the compound has an MIC value of 16 micrograms/ml or less)
